# From the NIST ThermoML archive (doi:10.1016/j.jct.2016.12.034)
# ± gives the expanded uncertainty stated by the source.
# Details: Crystal; for vapor or sublimation pressure: Transpiration method
smiles,measurement,setting,value
CC(=O)Nc1ccc(/C=N/NC(N)=S)cc1 [Thioacetazone],vapor or sublimation pressure,404.15 K,1.89e-05 ± 2.1e-06 kPa
same,vapor or sublimation pressure,406.15 K,2.23e-05 ± 2.5e-06 kPa
same,vapor or sublimation pressure,408.15 K,2.81e-05 ± 3.2e-06 kPa
same,vapor or sublimation pressure,410.15 K,3.67e-05 ± 4.1e-06 kPa
same,vapor or sublimation pressure,412.15 K,4.46e-05 ± 5e-06 kPa
same,vapor or sublimation pressure,415.15 K,6.04e-05 ± 6.6e-06 kPa
same,vapor or sublimation pressure,417.15 K,7.03e-05 ± 8.1e-06 kPa
same,vapor or sublimation pressure,420.15 K,0.0001125 ± 1.3e-05 kPa
same,vapor or sublimation pressure,423.15 K,0.0001414 ± 1.5e-05 kPa
same,vapor or sublimation pressure,425.15 K,0.0001651 ± 1.9e-05 kPa
same,vapor or sublimation pressure,427.15 K,0.0002376 ± 2.7e-05 kPa
same,vapor or sublimation pressure,429.15 K,0.0002851 ± 3.1e-05 kPa
same,Normal melting temperature,DTA,229.00 ± 0.5 °C
